Experimental data as given in article PMC4402584, “New Diterpenes from Cultures of the Fungus Engleromyces goetzii and Their CETP Inhibitory Activity” (Natural Products and Bioprospecting, 2015).

Target: T1, cholesterol ester transfer protein (CETP) (Oryctolagus cuniculus, UniProt P22687)
T1 sequence (P22687 2-497): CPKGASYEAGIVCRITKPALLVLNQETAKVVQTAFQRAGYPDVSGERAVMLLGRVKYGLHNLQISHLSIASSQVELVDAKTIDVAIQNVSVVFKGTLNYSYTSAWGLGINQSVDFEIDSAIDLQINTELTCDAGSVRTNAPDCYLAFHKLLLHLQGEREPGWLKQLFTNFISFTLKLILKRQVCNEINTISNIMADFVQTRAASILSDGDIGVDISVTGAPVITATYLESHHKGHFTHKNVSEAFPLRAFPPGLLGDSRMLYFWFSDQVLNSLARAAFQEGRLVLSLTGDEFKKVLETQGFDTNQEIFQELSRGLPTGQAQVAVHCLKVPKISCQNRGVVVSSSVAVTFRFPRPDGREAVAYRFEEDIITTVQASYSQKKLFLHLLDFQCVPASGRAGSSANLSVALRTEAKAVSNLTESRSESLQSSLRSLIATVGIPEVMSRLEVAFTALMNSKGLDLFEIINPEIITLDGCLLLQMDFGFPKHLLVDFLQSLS
Test: fluorescent neutral lipid transfer assay (BioVision CETP Inhibitor Screening Kit) with rabbit serum as CETP source
Format: biochemical

- IC50: 7.55 µM
SMILES: C=C[C@@H]1C(=C)CC[C@H]2[C@H]1CC[C@@H]1[C@]2(C)C[C@@H](O)C[C@]1(C)C(=O)O [compound 1, engleromycenolic acid A]
